# Measurements taken from BindingDB's records for doi:10.1016/j.bmcl.2009.01.098 (Glaxosmithkline, 2009).
# Biological target: Muscarinic acetylcholine receptor M3 (Homo sapiens, UniProt P20309)
# Experiment: Antagonist activity at human recombinant muscarinic M3 receptor expressed in CHO cells assessed as inhibition of acetylcholine-induced calcium mobilization by FLIPR based single concentration kinetic assay
# Muscarinic acetylcholine receptor M3, sequence (P20309 whole entry): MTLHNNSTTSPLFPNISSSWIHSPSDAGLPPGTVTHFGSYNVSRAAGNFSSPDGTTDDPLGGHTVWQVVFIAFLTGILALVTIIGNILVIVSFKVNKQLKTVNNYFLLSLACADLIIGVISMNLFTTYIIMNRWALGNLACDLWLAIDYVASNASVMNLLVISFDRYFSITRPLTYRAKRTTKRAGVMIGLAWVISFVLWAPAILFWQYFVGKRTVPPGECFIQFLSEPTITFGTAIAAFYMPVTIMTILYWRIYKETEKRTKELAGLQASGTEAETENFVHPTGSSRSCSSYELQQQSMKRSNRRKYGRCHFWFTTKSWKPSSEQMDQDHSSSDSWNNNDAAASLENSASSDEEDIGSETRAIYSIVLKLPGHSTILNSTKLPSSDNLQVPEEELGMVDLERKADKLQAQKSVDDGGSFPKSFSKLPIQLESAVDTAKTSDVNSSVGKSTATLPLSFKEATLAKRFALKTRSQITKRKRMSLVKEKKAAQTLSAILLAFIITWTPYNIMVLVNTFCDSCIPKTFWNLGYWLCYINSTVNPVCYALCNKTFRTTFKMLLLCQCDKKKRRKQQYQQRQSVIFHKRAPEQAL
row,SMILES,Kd
1,CC1CN(Cc2cccc(-c3cc(CNC(=O)c4cccc(CN5CCN(C)CC5)c4)ccc3F)c2)CCN1 (stereo not drawn),0.0316 nM
2,CC1CN(Cc2cccc(-c3cc(CNC(=O)c4cccc(CN5CCN(CCCO)CC5)c4)ccc3F)c2)CCN1 (stereo not drawn),0.0631 nM
3,CC1CN(Cc2cccc(-c3cc(CNC(=O)c4cccc(CN5CCCN(C)CC5)c4)ccc3F)c2)CCN1 (stereo not drawn),0.251 nM
4,CC1CN(Cc2cccc(-c3cc(CNC(=O)c4cccc(CN(C)CCCN(C)C)c4)ccc3F)c2)CCN1 (stereo not drawn),0.2 nM
5,CC1CN(Cc2cccc(-c3cc(CNC(=O)c4cccc(CN5CCN(C=O)CC5)c4)ccc3F)c2)CCN1 (stereo not drawn),0.0794 nM
6,CC1CN(Cc2cccc(-c3cc(CNC(=O)c4cccc(CN5CCOCC5)c4)ccc3F)c2)CCN1 (stereo not drawn),0.126 nM
7,CC1CN(Cc2cccc(-c3cc(CNC(=O)c4cccc(CN5CCCCC5)c4)ccc3F)c2)CCN1 (stereo not drawn),0.631 nM
8,CC1CN(Cc2cccc(-c3cc(CNC(=O)c4cccc(CN(C)C)c4)ccc3F)c2)CCN1 (stereo not drawn),3.16 nM
